According to ChEMBL document CHEMBL1133350, “Novel DMARDs on the basis of a new concept of dual cytokine regulation, TNF-alpha suppression and IL-10 augmentation” (Bioorg Med Chem Lett, 2000):

Tests used:
Mus musculus [1] = experiment: The compound (10 mg/kg) administered perorally was tested for its ability to augment IL-10 in LPS-stimulated mice; assay type: functional
Mus musculus [2] = experiment: Inhibit tumor necrosis factor alpha production in LPS-stimulated mice after peroral administration of 10 mg/kg; assay type: functional; conditions: route oral
[3] = Partition coefficient (logP); conditions: octanol/water
Rattus norvegicus [4] = experiment: The compound (10 mg/kg) was tested for its therapeutic effect in an adjuvant-induced arthritis rat; assay type: functional
Rattus norvegicus [5] = experiment: The compound (30 mg/kg) was tested for its therapeutic effect in an adjuvant-induced arthritis rat; assay type: functional
[6] = Bioavailability of the compound in rats after administration of 30 mg/kg; assay type: ADME, organism-based; conditions: rat, in vivo, read-out: Bioavailabiility

CC(=O)NCc1ccc(CN2CCN(c3nccs3)CC2)cc1
IL-10 level (% of control) (Mus musculus [1]): 1150%
inhibition in vivo at 10 mg/kg (Mus musculus [2]): 85%
logP [3]: 1.23
Therapeutic effect (Rattus norvegicus [4]): 80%

CC(=O)NC1(c2ccc(CN3CCN(c4nccs4)CC3)cc2)CC1
IL-10 level (% of control) (Mus musculus [1]): 646%
inhibition in vivo at 10 mg/kg (Mus musculus [2]): 84%
logP [3]: 1.58
Therapeutic effect (Rattus norvegicus [4]): 133%

CC(=O)NC1(c2ccc(CN3CCN(c4ccccc4)CC3)cc2)CC1
IL-10 level (% of control) (Mus musculus [1]): 712%
inhibition in vivo at 10 mg/kg (Mus musculus [2]): 90%
logP [3]: 1.9

CC(=O)NC(C)(C)c1ccc(CN2CCN(c3ncccn3)CC2)cc1
IL-10 level (% of control) (Mus musculus [1]): 200%
inhibition in vivo at 10 mg/kg (Mus musculus [2]): 77%
logP [3]: 1.18

CC(=O)NC(C)(C)c1ccc(CN2CCN(c3nccs3)CC2)cc1
IL-10 level (% of control) (Mus musculus [1]): 712%
inhibition in vivo at 10 mg/kg (Mus musculus [2]): 85%
logP [3]: 2.01
Therapeutic effect (Rattus norvegicus [4]): 131%

CC(=O)NCc1ccc(CN2CCN(c3cccc(F)n3)CC2)cc1
IL-10 level (% of control) (Mus musculus [1]): 973%
inhibition in vivo at 10 mg/kg (Mus musculus [2]): 85%
logP [3]: 1.45
Therapeutic effect (Rattus norvegicus [4]): 144%

CC(=O)NCc1ccc(CN2CCN(c3ccccn3)CC2)cc1
IL-10 level (% of control) (Mus musculus [1]): 642%
inhibition in vivo at 10 mg/kg (Mus musculus [2]): 88%
logP [3]: 0.88
Therapeutic effect (Rattus norvegicus [4]): 62%

CC(=O)NCc1ccc(CN2CCN(c3ccccc3)CC2)cc1
IL-10 level (% of control) (Mus musculus [1]): 376%
inhibition in vivo at 10 mg/kg (Mus musculus [2]): 89%
Therapeutic effect (Rattus norvegicus [5]): 35%
logP [3]: 1.55

CC(=O)NC(C)(C)c1ccc(CN2CCN(c3cccc(F)n3)CC2)cc1
IL-10 level (% of control) (Mus musculus [1]): 579%
inhibition in vivo at 10 mg/kg (Mus musculus [2]): 88%
logP [3]: 2.24
Therapeutic effect (Rattus norvegicus [4]): 142%

CC(=O)NCc1ccc(CN2CCN(c3ccncc3)CC2)cc1
IL-10 level (% of control) (Mus musculus [1]): 198%
inhibition in vivo at 10 mg/kg (Mus musculus [2]): 40%
logP [3]: 0.51

CC(=O)NC(C)c1ccc(CN2CCN(c3ccccc3)CC2)cc1 (stereo unspecified)
IL-10 level (% of control) (Mus musculus [1]): 270%
inhibition in vivo at 10 mg/kg (Mus musculus [2]): 87%
logP [3]: 2.08

CC(=O)NC1(c2ccc(CN3CCN(c4ncccn4)CC3)cc2)CC1
IL-10 level (% of control) (Mus musculus [1]): 419%
inhibition in vivo at 10 mg/kg (Mus musculus [2]): 88%
logP [3]: 0.75
Therapeutic effect (Rattus norvegicus [4]): 163%
bioavailability [6]: 76%

CC(=O)NC(C)c1ccc(CN2CCN(c3cccc(F)n3)CC2)cc1 (stereo unspecified)
IL-10 level (% of control) (Mus musculus [1]): 404%
inhibition in vivo at 10 mg/kg (Mus musculus [2]): 82%
logP [3]: 1.99
Therapeutic effect (Rattus norvegicus [4]): 173%

CC(=O)NCc1ccc(CN2CCN(c3cnccn3)CC2)cc1
IL-10 level (% of control) (Mus musculus [1]): 334%
inhibition in vivo at 10 mg/kg (Mus musculus [2]): 76%
logP [3]: -0.09

CC(=O)NCc1ccc(CN2CCN(c3ncccn3)CC2)cc1
IL-10 level (% of control) (Mus musculus [1]): 713%
inhibition in vivo at 10 mg/kg (Mus musculus [2]): 82%
logP [3]: 0.4
Therapeutic effect (Rattus norvegicus [4]): 46%

CC(=O)NC1(c2ccc(CN3CCN(c4cccc(F)n4)CC3)cc2)CC1
IL-10 level (% of control) (Mus musculus [1]): 454%
inhibition in vivo at 10 mg/kg (Mus musculus [2]): 84%
logP [3]: 1.8
Therapeutic effect (Rattus norvegicus [4]): 55%

CC(=O)NC(C)(C)c1ccc(CN2CCN(c3ccccc3)CC2)cc1
IL-10 level (% of control) (Mus musculus [1]): 561%
inhibition in vivo at 10 mg/kg (Mus musculus [2]): 88%
Therapeutic effect (Rattus norvegicus [5]): 80%
logP [3]: 2.83

CC(=O)NCc1ccc(CN2CCN(c3ccc(F)cc3F)CC2)cc1
IL-10 level (% of control) (Mus musculus [1]): 2293%
inhibition in vivo at 10 mg/kg (Mus musculus [2]): 91%
Therapeutic effect (Rattus norvegicus [5]): 173%

CC(=O)NC(C)c1ccc(CN2CCN(c3nccs3)CC2)cc1 (stereo unspecified)
IL-10 level (% of control) (Mus musculus [1]): 621%
inhibition in vivo at 10 mg/kg (Mus musculus [2]): 84%
logP [3]: 1.76
Therapeutic effect (Rattus norvegicus [4]): 101%

CC(=O)NCc1ccc(CN2CCN(c3cccnc3)CC2)cc1
IL-10 level (% of control) (Mus musculus [1]): 236%
inhibition in vivo at 10 mg/kg (Mus musculus [2]): 61%
logP [3]: 0.49

CCC(CC)(NC(C)=O)c1ccc(CN2CCN(c3ccccc3)CC2)cc1
IL-10 level (% of control) (Mus musculus [1]): 321%
inhibition in vivo at 10 mg/kg (Mus musculus [2]): 81%
logP [3]: 3.35

CCC(NC(C)=O)c1ccc(CN2CCN(c3ccccc3)CC2)cc1 (stereo unspecified)
IL-10 level (% of control) (Mus musculus [1]): 222%
inhibition in vivo at 10 mg/kg (Mus musculus [2]): 82%
logP [3]: 2.59

CC(=O)NC(C)c1ccc(CN2CCN(c3ncccn3)CC2)cc1 (stereo unspecified)
IL-10 level (% of control) (Mus musculus [1]): 298%
inhibition in vivo at 10 mg/kg (Mus musculus [2]): 78%
logP [3]: 0.93

CC(=O)NCc1ccc(CN2CCN(c3nccn3C)CC2)cc1
IL-10 level (% of control) (Mus musculus [1]): 747%
inhibition in vivo at 10 mg/kg (Mus musculus [2]): 62%
logP [3]: 0.67
